In patent publication US8642585B2, “Indanyloxydihydrobenzofuranylacetic acids” (Boehringer Ingelheim International GmbH, priority 2012, dated 2014) one finds EC50 data, which are given here for 19 compounds.

The target in the assay is human GPR40 receptor (Homo sapiens, UniProt O14842). Description: Assay II: IP1 accumulation (IPOne HTRF) in 1321N1 cells stably expressing human GPR40. In kind it is cell-based. The conditions noted are these: 1321N1 cells expressing human GPR40, stimulation 1 h at 37° C., 5% CO2, LiCl 50 mM. A digest of the protocol:
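1321N1 cells stably expressing human GPR40, seeded 24 h earlier, were stimulated with compound for 1 h at 37 °C in LiCl (50 mM) buffer, pH 7.4. IP1 measured by HTRF (665/615 ratio) after lysis and 1 h room temperature; pEC50 via IP1 reference curve and variable-slope sigmoidal fit.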

Chain of human GPR40 receptor (O14842 whole entry): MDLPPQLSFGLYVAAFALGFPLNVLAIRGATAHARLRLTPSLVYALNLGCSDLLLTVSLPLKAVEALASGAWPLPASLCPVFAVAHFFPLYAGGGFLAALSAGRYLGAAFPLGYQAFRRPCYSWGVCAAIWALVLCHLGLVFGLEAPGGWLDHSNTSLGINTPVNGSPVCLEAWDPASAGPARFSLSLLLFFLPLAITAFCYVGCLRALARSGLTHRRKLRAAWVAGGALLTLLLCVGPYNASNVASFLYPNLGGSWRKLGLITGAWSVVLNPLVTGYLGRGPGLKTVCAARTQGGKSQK

Take `Cc1cc(-c2cc(C)c(-c3ccc(F)c4c3CC[C@H]4Oc3ccc4c(c3)OC[C@H]4CC(=O)O)c(C)c2)cnn1` [Example 130, {(S)-6-[(R)-4-(2,6-Dimethyl-4-(6-methyl-pyridazin-4-yl)-phenyl)-7-fluoro-indan-1-yloxy]-2,3-dihydro-benzofuran-3-yl}-acetic acid]: the EC50 was 5 nM.
Under `Cc1cc(-c2cn(C)c(C)n2)cc(C)c1-c1ccc(F)c2c1CC[C@H]2Oc1ccc2c(c1)OC[C@H]2CC(=O)O` [Example 131, {(S)-6-[(R)-4-(2,6-Dimethyl-4-(1,2-dimethyl-imidazol-4-yl)-phenyl)-7-fluoro-indan-1-yloxy]-2,3-dihydro-benzofuran-3-yl}-acetic acid] stands 2 nM.
`Cc1cc(-c2nccs2)cc(C)c1-c1ccc(F)c2c1CC[C@H]2Oc1ccc2c(c1)OC[C@H]2CC(=O)O` [Example 132, {(S)-6-[(R)-4-(2,6-Dimethyl-4-thiazol-2-yl-phenyl)-7-fluoro-indan-1-yloxy]-2,3-dihydro-benzofuran-3-yl}-acetic acid] registered an EC50 of 2 nM.
With `Cc1cc(-c2cn(C)cn2)cc(C)c1-c1ccc(F)c2c1CC[C@H]2Oc1ccc2c(c1)OC[C@H]2CC(=O)O` [Example 133, {(S)-6-[(R)-4-(2,6-Dimethyl-4-(1-methyl-imidazol-4-yl)-phenyl)-7-fluoro-indan-1-yloxy]-2,3-dihydro-benzofuran-3-yl}-acetic acid] the figure was 2 nM; with `Cc1nc(-c2cc(C)c(-c3ccc(F)c4c3CC[C@H]4Oc3ccc4c(c3)OC[C@H]4CC(=O)O)c(C)c2)no1` [Example 134, {(S)-6-[(R)-4-(2,6-Dimethyl-4-(5-methyl-[1,2,4]oxadiazol-3-yl)-phenyl)-7-fluoro-indan-1-yloxy]-2,3-dihydro-benzofuran-3-yl}-acetic acid], 3 nM.
Under `COc1ccc(-c2cc(C)c(-c3ccc(F)c4c3CC[C@H]4Oc3ccc4c(c3)OC[C@H]4CC(=O)O)c(C)c2)nc1` [Example 135, {(S)-6-[(R)-4-(2,6-Dimethyl-4-(5-methoxy-pyridin-2-yl)-phenyl)-7-fluoro-indan-1-yloxy]-2,3-dihydro-benzofuran-3-yl}-acetic acid] stands 7 nM.
With `Cc1cc(-c2noc(C(C)(C)O)n2)cc(C)c1-c1ccc(F)c2c1CC[C@H]2Oc1ccc2c(c1)OC[C@H]2CC(=O)O` [Example 136, {(S)-6-[(R)-4-(2,6-Dimethyl-4-(5-[2-hydroxy-prop-2-yl]-[1,2,4]oxadiazol-3-yl)-phenyl)-7-fluoro-indan-1-yloxy]-2,3-dihydro-benzofuran-3-yl}-acetic acid] the figure was 3 nM.
With `Cc1cc(-c2ccccn2)cc(C)c1-c1ccc(F)c2c1CC[C@H]2Oc1ccc2c(c1)OC[C@H]2CC(=O)O` [Example 137, {(S)-6-[(R)-4-(2,6-Dimethyl-4-pyridin-2-yl-phenyl)-7-fluoro-indan-1-yloxy]-2,3-dihydro-benzofuran-3-yl}-acetic acid], a half-maximal response (EC50) required 2 nM.
With `Cc1cccnc1-c1cc(C)c(-c2ccc(F)c3c2CC[C@H]3Oc2ccc3c(c2)OC[C@H]3CC(=O)O)c(C)c1` [Example 138, {(S)-6-[(R)-4-(2,6-Dimethyl-4-(3-methyl-pyridin-2-yl)-phenyl)-7-fluoro-indan-1-yloxy]-2,3-dihydro-benzofuran-3-yl}-acetic acid] the figure was 9 nM.
With `Cc1cccc(-c2cc(C)c(-c3ccc(F)c4c3CC[C@H]4Oc3ccc4c(c3)OC[C@H]4CC(=O)O)c(C)c2)n1` [Example 139, {(S)-6-[(R)-4-(2,6-Dimethyl-4-(6-methyl-pyridin-2-yl)-phenyl)-7-fluoro-indan-1-yloxy]-2,3-dihydro-benzofuran-3-yl}-acetic acid] the figure was 2 nM; with `Cc1ccnc(-c2cc(C)c(-c3ccc(F)c4c3CC[C@H]4Oc3ccc4c(c3)OC[C@H]4CC(=O)O)c(C)c2)c1` [Example 140, {(S)-6-[(R)-4-(2,6-Dimethyl-4-(4-methyl-pyridin-2-yl)-phenyl)-7-fluoro-indan-1-yloxy]-2,3-dihydro-benzofuran-3-yl}-acetic acid], 2 nM; with `Cc1cc(C)nc(-c2cc(C)c(-c3ccc(F)c4c3CC[C@H]4Oc3ccc4c(c3)OC[C@H]4CC(=O)O)c(C)c2)c1` [Example 141, {(S)-6-[(R)-4-(2,6-Dimethyl-4-(4,6-dimethyl-pyridin-2-yl)-phenyl)-7-fluoro-indan-1-yloxy]-2,3-dihydro-benzofuran-3-yl}-acetic acid], 3 nM.
Under `Cc1cn(C)c(-c2cc(C)c(-c3ccc(F)c4c3CC[C@H]4Oc3ccc4c(c3)OC[C@H]4CC(=O)O)c(C)c2)n1` [Example 142, {(S)-6-[(R)-4-(2,6-Dimethyl-4-(1,4-dimethyl-imidazol-2-yl)-phenyl)-7-fluoro-indan-1-yloxy]-2,3-dihydro-benzofuran-3-yl}-acetic acid] stands 16 nM; under `Cc1ccc(-c2cc(C)c(-c3ccc(F)c4c3CC[C@H]4Oc3ccc4c(c3)OC[C@H]4CC(=O)O)c(C)c2)nc1` [Example 143, {(S)-6-[(R)-4-(2,6-Dimethyl-4-(5-methyl-pyridin-2-yl)-phenyl)-7-fluoro-indan-1-yloxy]-2,3-dihydro-benzofuran-3-yl}-acetic acid], 3 nM.
`Cc1cc(-c2nccn2C)cc(C)c1-c1ccc(F)c2c1CC[C@H]2Oc1ccc2c(c1)OC[C@H]2CC(=O)O` [Example 144, {(S)-6-[(R)-4-(2,6-Dimethyl-4-(1-methyl-imidazol-2-yl)-phenyl)-7-fluoro-indan-1-yloxy]-2,3-dihydro-benzofuran-3-yl}-acetic acid] yielded an EC50 of 17 nM.
`Cc1cc(OCc2ccn(C)n2)cc(C)c1-c1ccc(F)c2c1CC[C@H]2Oc1ccc2c(c1)OC[C@H]2CC(=O)O` [Example 145, 2-((S)-6-((R)-4-(2,6-dimethyl-4-((1-methyl-1H-pyrazol-3-yl)methoxy)phenyl)-7-fluoro-2,3-dihydro-1H-inden-1-yloxy)-2,3-dihydrobenzofuran-3-yl)acetic acid] had an EC50 of 15 nM.
Under `Cc1cc(OCc2ccn(C)c(=O)c2)cc(C)c1-c1ccc(F)c2c1CC[C@H]2Oc1ccc2c(c1)OC[C@H]2CC(=O)O` [Example 146, 2-((S)-6-((R)-4-(2,6-dimethyl-4-((1-methyl-2-oxo-1,2-dihydropyridin-4-yl)methoxy)phenyl)-7-fluoro-2,3-dihydro-1H-inden-1-yloxy)-2,3-dihydrobenzofuran-3-yl)acetic acid] stands 7 nM; under `Cc1cc(OCc2ncco2)cc(C)c1-c1ccc(F)c2c1CC[C@H]2Oc1ccc2c(c1)OC[C@H]2CC(=O)O` [Example 148, 2-((S)-6-((R)-4-(2,6-dimethyl-4-(oxazol-2-ylmethoxy)phenyl)-7-fluoro-2,3-dihydro-1H-inden-1-yloxy)-2,3-dihydrobenzofuran-3-yl)acetic acid], 13 nM; under `Cc1cc(OCc2nccn2C)cc(C)c1-c1ccc(F)c2c1CC[C@H]2Oc1ccc2c(c1)OC[C@H]2CC(=O)O` [Example 149, 2-((S)-6-((R)-4-(2,6-dimethyl-4-((1-methyl-1H-imidazol-2-yl)methoxy)phenyl)-7-fluoro-2,3-dihydro-1H-inden-1-yloxy)-2,3-dihydrobenzofuran-3-yl)acetic acid], 12 nM.
